Test results published in patent US6355799B1, “Substituted benzene compounds, process for their preparation, and herbicidal and defoliant compositions containing them” (ISK Americas Incorporated, priority 1997, dated 2002).

Legend:
Assay type in all cases: in vivo
[1] = test system: redroot pigweed (Amaranthus retroflexus, AMARE); assay: Pre-emerge test, greenhouse herbicide activity screening; settings: pre-emerge, 14 days after application, scale 0-100
Summary of the method: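 Sandy loam pots; pre-emerge: sown 1 d pre-spray, surface-watered after, then bottom-watered. Post-emerge: sown 8–21 d before, 2–3 leaf stage, + 0.25% v/v NIS, bottom-watered. Acetone, 187 l/ha track spray, 15–1000 g ai/ha. 0–100 injury score, day 14.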

[2] = test system: upland rice (Oryza sp., var. Tebonnet, RICE); assay: Post-emerge test, crop safety; settings: post-emerge, 14 days after application, rating scale 0-100
Summary of the method: (§1)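 Compounds in acetone were track-sprayed at 187 l/ha, 15–1000 g ai/ha, onto sandy loam pots. Pre-emerge seeds were sown one day before spraying, with surface watering afterwards. Post-emerge plants were at the 2–3 leaf stage and sprayed with 0.25% v/v non-ionic surfactant. Injury was rated 0–100 at 14 days.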

[3] = test system: field corn (Zea mays L., var. Dekalb 535, CORN); assay: Post-emerge test, crop safety; settings: post-emerge, 14 days after application, rating scale 0-100
Summary of the method: as §1

[4] = test system: barnyardgrass (Echinochloa crus-galli, ECHCG); assay: Pre-emerge test, greenhouse herbicide activity screening; settings: pre-emerge, 14 days after application, scale 0-100
Summary of the method: as §1

[5] = test system: johnsongrass (Sorghum halepense, SORHA); assay: as above; settings: pre-emerge, 14 days after application, scale 0-100
Summary of the method: as §1

[6] = test system: sicklepod (Cassia obtusifolia, CASOB); assay: as above; settings: pre-emerge, 14 days after application, scale 0-100
Summary of the method: as §1

[7] = test system: velvetleaf (Abutilon theophrasti, ABUTH); assay: as above; settings: pre-emerge, 14 days after application, scale 0-100
Summary of the method: as §1

[8] = test system: lambsquarters (Chenopodium album, CHEAL); assay: as above; settings: pre-emerge, 14 days after application, scale 0-100
Summary of the method: as §1

[9] = test system: green foxtail (Setaria viridis, SETVI); assay: as above; settings: pre-emerge, 14 days after application, scale 0-100
Summary of the method: as §1

[10] = test system: large crabgrass (Digitaria sanguinalis, DIGSA); assay: as above; settings: pre-emerge, 14 days after application, scale 0-100
Summary of the method: as §1

[11] = test system: ivyleaf morningglory (Ipomoea hederacea, IPOHE); assay: as above; settings: pre-emerge, 14 days after application, scale 0-100
Summary of the method: as §1

[12] = test system: barnyardgrass (Echinochloa crus-galli, ECHCG); assay: Post-emerge test, greenhouse herbicide activity screening; settings: post-emerge, 14 days after application, rating scale 0-100
Summary of the method: (§2)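 Applied at 15–1000 g ai/ha from acetone in 187 l/ha spray volume. Post-emergence applications included 0.25% v/v non-ionic surfactant and reached plants sown 8–21 days before. Pre-emergence applications were incorporated by surface watering. Efficacy or crop damage was rated on a 0–100 scale after 14 days.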

[13] = test system: johnsongrass (Sorghum halepense, SORHA); assay: as above; settings: post-emerge, 14 days after application, rating scale 0-100
Summary of the method: as §2

[14] = test system: sicklepod (Cassia obtusifolia, CASOB); assay: as above; settings: post-emerge, 14 days after application, rating scale 0-100
Summary of the method: as §2

[15] = test system: velvetleaf (Abutilon theophrasti, ABUTH); assay: as above; settings: post-emerge, 14 days after application, rating scale 0-100
Summary of the method: as §2

[16] = test system: lambsquarters (Chenopodium album, CHEAL); assay: as above; settings: post-emerge, 14 days after application, rating scale 0-100
Summary of the method: as §2

[17] = test system: green foxtail (Setaria viridis, SETVI); assay: as above; settings: post-emerge, 14 days after application, rating scale 0-100
Summary of the method: as §2

[18] = test system: redroot pigweed (Amaranthus retroflexus, AMARE); assay: as above; settings: post-emerge, 14 days after application, rating scale 0-100
Summary of the method: as §2

[19] = test system: large crabgrass (Digitaria sanguinalis, DIGSA); assay: as above; settings: post-emerge, 14 days after application, rating scale 0-100
Summary of the method: as §2

[20] = test system: common ragweed (Ambrosia artemisizfolia L., AMBEL); assay: as above; settings: post-emerge, 14 days after application, rating scale 0-100
Summary of the method: as §2

[21] = test system: ivyleaf morningglory (Ipomoea hederacea, IPOHE); assay: as above; settings: post-emerge, 14 days after application, rating scale 0-100
Summary of the method: as §2

[22] = test system: upland rice (Oryza sp., var. Tebonnet, RICE); assay: Pre-emerge test, crop safety; settings: pre-emerge, 14 days after application, scale 0-100
Summary of the method: (§3)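 Fourteen days after spraying, crop and weed injury was graded visually from 0, no effect, to 100, every plant dead. Test substances were dissolved in acetone and applied at 15–1000 g ai/ha with a flat-fan nozzle. Application was either pre-emergence, one day after sowing, or post-emergence at the 2–3 leaf stage.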

[23] = test system: field corn (Zea mays L., var. Dekalb 535, CORN); assay: Pre-emerge test, crop safety; settings: pre-emerge, 14 days after application, scale 0-100
Summary of the method: as §3

In the case of `COc1c(Cl)cc(F)c(-n2c(=O)cc(C(F)(F)F)n(C)c2=O)c1NC(=O)c1ccc2c(Br)cccc2c1` [2-158], the “phytotoxicity rating AMARE” value ([1]; 63 g ai/ha) is reported as 100, the “phytotoxicity rating AMARE” value ([1]; 250 g ai/ha) is reported as 100 and the “RICE phytotoxicity rating (crop damage)” value ([2]; 63 g ai/ha) is reported as 20. For the same molecule, the “RICE phytotoxicity rating (crop damage)” value ([2]; 250 g ai/ha) was 60, the “CORN phytotoxicity rating (crop damage)” value ([3]; 63 g ai/ha) was 0 and the “CORN phytotoxicity rating (crop damage)” value ([3]; 250 g ai/ha) was 0. The “phytotoxicity rating ECHCG” value ([4]; 63 g ai/ha) was 50, the “phytotoxicity rating ECHCG” value ([4]; 250 g ai/ha) was 80 and the “phytotoxicity rating SORHA” value ([5]; 63 g ai/ha) was 0. The “phytotoxicity rating SORHA” value ([5]; 250 g ai/ha) was 20, the “phytotoxicity rating CASOB” value ([6]; 63 g ai/ha) was 0 and the “phytotoxicity rating CASOB” value ([6]; 250 g ai/ha) was 0. The “phytotoxicity rating ABUTH” value ([7]; 63 g ai/ha) was 80, the “phytotoxicity rating ABUTH” value ([7]; 250 g ai/ha) was 95 and the “phytotoxicity rating CHEAL” value ([8]; 63 g ai/ha) was 100. For the same molecule, the “phytotoxicity rating CHEAL” value ([8]; 250 g ai/ha) was 100, the “phytotoxicity rating SETVI” value ([9]; 63 g ai/ha) was 0 and the “phytotoxicity rating SETVI” value ([9]; 250 g ai/ha) was 95. For the same molecule, the “phytotoxicity rating DIGSA” value ([10]; 63 g ai/ha) was 80, the “phytotoxicity rating DIGSA” value ([10]; 250 g ai/ha) was 95 and the “phytotoxicity rating IPOHE” value ([11]; 63 g ai/ha) was 0. The “phytotoxicity rating IPOHE” value ([11]; 250 g ai/ha) was 0, the ECHCG phytotoxicity rating ([12]; 63 g ai/ha) was 0 and the ECHCG phytotoxicity rating ([12]; 250 g ai/ha) was 50. For the same molecule, the SORHA phytotoxicity rating ([13]; 63 g ai/ha) was 0, the SORHA phytotoxicity rating ([13]; 250 g ai/ha) was 0 and the CASOB phytotoxicity rating ([14]; 63 g ai/ha) was 90. For the same molecule, the CASOB phytotoxicity rating ([14]; 250 g ai/ha) was 100, the ABUTH phytotoxicity rating ([15]; 63 g ai/ha) was 95 and the ABUTH phytotoxicity rating ([15]; 250 g ai/ha) was 100. The CHEAL phytotoxicity rating ([16]; 63 g ai/ha) was 90, the CHEAL phytotoxicity rating ([16]; 250 g ai/ha) was 95 and the SETVI phytotoxicity rating ([17]; 63 g ai/ha) was 10. It also gave an SETVI phytotoxicity rating ([17]; 250 g ai/ha) of 70, an AMARE phytotoxicity rating ([18]; 63 g ai/ha) of 100 and an AMARE phytotoxicity rating ([18]; 250 g ai/ha) of 100. The DIGSA phytotoxicity rating ([19]; 63 g ai/ha) was 0, the DIGSA phytotoxicity rating ([19]; 250 g ai/ha) was 30 and the AMBEL phytotoxicity rating ([20]; 63 g ai/ha) was 50. The AMBEL phytotoxicity rating ([20]; 250 g ai/ha) was 100, the IPOHE phytotoxicity rating ([21]; 63 g ai/ha) was 20 and the IPOHE phytotoxicity rating ([21]; 250 g ai/ha) was 80. For the same molecule, the “phytotoxicity rating RICE (crop damage)” value ([22]; 63 g ai/ha) was 0, the “phytotoxicity rating RICE (crop damage)” value ([22]; 250 g ai/ha) was 10 and the “phytotoxicity rating CORN (crop damage)” value ([23]; 63 g ai/ha) was 0. For the same molecule, the “phytotoxicity rating CORN (crop damage)” value ([23]; 250 g ai/ha) was 0.
